Laboratory results taken from patent publication US20170217982A1, “Compound isolated from Pseudolysimachion rotundum var. subintegrum, the composition comprising the same for treating allergic disease, inflammatory disease, asthma or chronic obstructive pulmonary disease and the use thereof” (YUNGJIN PHARMACEUTICAL CO., LTD, priority 2014, published 2017).
Values joined by “and” are separate entries in the source; they are usually repeats but may differ in a detail not shown here. Identical values can stand only once.

Assays:
Type in all cases: cell-based, human
H292 cell = assay: Evaluation of cytotoxicity in H292 cell (CCK-8); settings: for H292 cell viability (%, mean ± variation): 24 hours, CCK-8
Description: In order to determine the cytotoxicity of inventive compound, following preliminary test was performed by the method disclosed in the literature (Shiyama et al., Talanta, 1997, 44, 1299-1305; Tominaga et al., Anal. Commun., 1999, 36, 47-50).
HT1080 (CRL-12012), H292 (CRL-1848) and murine EL4 cells (TIB-39) were purchased from company (American Type Culture Collection).
HT1080 (CRL-12012) and murine EL4 cells were cultured in DMEM medium (SB30243.01, Dulbecco's modified Eagle's medium; DMEM, HyClone) supplemented with 10% FBS (Fetal Bovine Serum; Gibco) and antibiotic (100 units/ml penicillin+100 units/ml streptomycin). H292 cell was cultured in RPMI medium (SH30027.01, RPMI 1640, Gibco) supplemented with 10% FBS and antibiotic. The cells were cultures under the condition of humidified 5% CO2 atmosphere at 37° C. PMA (P8139, Phorbol 12-myristate 13-acetate) was purchased from the company (Sigma Chemical Co., St. Louis, Mo.) and TNF-α is from the company (300-01A, PeproTech, NJ USA Inc.) to use in the experiment.
H292 cell line, a human hung mucosal cancer cell line, was suspended in 10% FBS-supplemented RPMI medium in a concentration of 5×10^4 cells/ml, and 100 μl of the suspension was inoculated into 96 well plates to adhere cell to the plate for 12 hours. Various concentrations of test sample (KS 534 compound) were treated therewith and cultured for 24 hours. 10 μL of CCK-8 solution was mixed with 90 μL of the medium and 100 μL of solution was added to each well. After reacting from 30 mins to 4 hours, the absorbance of the solution was determined at 570 nm. The cell viability was calculated according to following Math formulae 1 based on negative control group treated with 0.2% DMSO and the result was shown in Table 2.
Cell viability (%)=OD 570 nm (test group)/OD 570 nm (negative control group)×100 Math formulae 1

NF-kappa B = NF-kappa B luciferase reporter assay in H292 cells; settings: 10 μm, TNF-alpha 20 ng/ml
Description: NF-kappa B luciferase reporter assay was performed by following procedure disclosed in the literature (Pulin Che et al., Assay Drug Dev. Technol., 2012, 10, 61-68).
In order to establish the stable cells for NF-kappa B luciferase reporter assay, NF-kappa B response element was cloned into vector (pGL4.32 vector, E849A, Promega) according to the manufacture's protocol and infected to the cell (H292 cells, CRL-1848, ATCC) using by Lipofectamine 2000 (11668-019, Invitrogen). The infected cell was selected using by hygromycin (400 μg/ml) for 2 weeks and the colonies were individually cloned and proliferated. […] The test sample was pre-treated in a pre-determined concentration and 20 ng/ml of TNF-alpha was treated therewith for 12 hours. The activity of luciferase enzyme was determined by E6110 kit (OneGlo Luciferase Assay kit, Promega) and DMSO was used as a vehicle control.
The stably expressed H292 cells, a […] human bronchial epithelium cell, with luciferase reporter vector pGL4.32 (luc2P/NF-KB-RE/Hygro, Promega Company) were established prior to following experiment. […] The activation degree of luciferase was determined by One-glow Luciferase Assay system (Promega Company). […] The luminescence was determined by Microplate Luminometer LB 96V (EG&G Berthold company) for 0.5 sec and the result was shown in Table 5 and FIG. 3.

MUC5AC protein = assay: Inhibition of MUC5AC protein secretion (modified ELISA) in H292 cells; settings: TNF-alpha 20 ng/ml
Description: In order to determine the inhibitory effect on the reproduction of MUC5AC protein, following test was performed by the method disclosed in the literature (Sikder, M A. et al., Phytother. Res., 2014, 28, 62-68)
For the immunoassay on reproduced MUCSAC, 50 μL of collected supernatant in Experimental Example 3 was distributed to 96 well plate and dried in a thermostat at 50[…].
After washing with 1% BSA added PBS solution, MUCSAC antibody (ab3649, abcam Co.) was added to react together at room temperature for 1 hour and then secondary antibody was added thereto to react together for 1 hour. After re-washing, 3,3′,5,5′-tetramethylbenzidine peroxide solution (54827-17-7, Sigma-aldrich) was added thereto to react together for 20 mins. After stopping the reaction by adding sulfuric acid solution, the absorbance was determined by VERSAmax microplate reader, (SMP500-14915, Molecular Devices, USA) at 450 nm (Sikder, M. A. et al., Phytother. Res., 2014, 28, 62-68; Takeyama, K. et al. Proc. Natl. Acad. Sci. U.S.A., 1999, 96, 3081-3086).

SMILES: O=C(CO)O[C@@H]1O[C@@H]2C[C@H]3[C@H](OC(=O)c4ccc(O)c(O)c4)[C@@H](Cl)[C@@](O)(CO2)[C@@H]13 [KS-534, (3R,5S,5aS,6R,7S,8R,8aS)-8-chloro-8a-hydroxy-5-(2-hydroxyacetoxy) hexahydro-1H-3,6-methanocyclopenta[e][1,3]dioxepin-7-yl3,4-dihydroxybenzoate]
- H292 cell viability (%, mean ± variation) (H292 cell; 2.5 μm): 101.88 ± 3.71%
- H292 cell viability (%, mean ± variation) (H292 cell; 5 μm): 102.46 ± 3.96%
- H292 cell viability (%, mean ± variation) (H292 cell; 10 μm): 99.89 ± 4.79%
- H292 cell viability (%, mean ± variation) (H292 cell; 20 μm): 97.87 ± 2.92%
- cytotoxicity in H292 cell (H292 cell; at less than 20 μm): did not show cytotoxicity
- Inhibitory ratio (%) of NF-kappa B activity (NF-kappa B): 36.65%
- NF-kappa B activity (relative % comparing with TNF-alpha treatment group) (NF-kappa B): 63.35% and 63.35 ± 6.18%
- Inhibitory ratio (%) of MUC5AC secretion (MUC5AC protein; 2.5 μm): 6.62%
- MUC5AC secretion (relative % comparing with TNF-alpha treatment group) (MUC5AC protein; 2.5 μm): 93.38% and 93.38 ± 0.90%
- Inhibitory ratio (%) of MUC5AC secretion (MUC5AC protein; 5 μm): 21.73%
- MUC5AC secretion (relative % comparing with TNF-alpha treatment group) (MUC5AC protein; 5 μm): 78.27% and 78.27 ± 2.16%
- Inhibitory ratio (%) of MUC5AC secretion (MUC5AC protein; 10 μm): 35.23%
- MUC5AC secretion (relative % comparing with TNF-alpha treatment group) (MUC5AC protein; 10 μm): 64.77% and 64.77 ± 1.56%
